Assay results: patent publication US10703733B2, “MCL-1 inhibitors” (Gilead Sciences, Inc., priority 2018, dated 2020)
Read-outs that look alike come from different tables or passages of the source.

Legend:
[1] = target: MCL-1/Bim interaction (recombinant human MCL-1 protein, residues 171-327; biotinylated human Bim peptide, residues 51-76) (Homo sapiens (Human), UniProt Q07820); test: MCL-1/Bim Binding AlphaLISA Assay; details: 0.0625 nM 6xHis-Mcl-1 (171-327), 0.0625 nM biotinylated-Bim peptide
Summary of the method: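 Compounds first sat 1 h with MCL-1 (171-327, 0.0625 nM), followed by 2 h with biotin-Bim 51-76 (0.0625 nM), then sequential 1 h anti-His acceptor and streptavidin donor bead steps; buffer Hepes pH 7.5 with NaCl, Brij 35, DTT, BSA. AlphaScreen signal converted to % inhibition using DMSO (negative) and protein/peptide-free (positive) controls.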

SKBR3 cells = test: SKBR3 Cell Viability Assay (CellTiter Glo); type: cell-based; details: CellTiter Glo luminescence, read-out: MCL-1 CV SKBR3 EC50
Summary of the method: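 Viability read as CellTiter Glo luminescence after 72 h of compound exposure at 37° C./5% CO2, using 6,000 SKBR3 cells per well in McCoy 5A with 10% FBS. Percent inhibition scaled between DMSO wells and 10 μM puromycin wells.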

Sequence of MCL-1/Bim interaction (recombinant human MCL-1 protein, residues 171-327; biotinylated human Bim peptide, residues 51-76) (Q07820 171-327): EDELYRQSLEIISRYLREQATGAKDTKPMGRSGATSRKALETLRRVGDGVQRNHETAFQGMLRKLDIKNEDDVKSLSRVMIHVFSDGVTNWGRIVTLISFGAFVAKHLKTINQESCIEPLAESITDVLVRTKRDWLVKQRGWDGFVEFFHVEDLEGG

Row | SMILES | IC50 [1] | EC50 (SKBR3 cells; Homo sapiens, SK-BR-3, 72 h) | EC50 (SKBR3 cells; 72 hours)
1 | COC(=O)N1CC[C@H](C(=O)N[S@@]2(=O)=NC(=O)c3ccc4c(c3)N(C[C@@H]3CC[C@H]3[C@@H](OC)/C=C/C[C@H](C)C2)C[C@@]2(CCCc3cc(Cl)ccc32)CO4)C1 [Example 439] | 0.138 nM | 789 nM | 
2 | CO[C@H]1/C=C/C[C@H](C)C[S@@](=O)(NC(=O)N[C@@H]2CC[C@H]2OC)=NC(=O)c2ccc3c(c2)N(C[C@@H]2CC[C@H]21)C[C@@]1(CCCc2cc(Cl)ccc21)CO3 [Example 179] | 0.102 nM | 82.5 nM | 
3 | CO[C@H]1/C=C/CCC[S@@](=O)(NC(=O)CCS(C)(=O)=O)=NC(=O)c2ccc3c(c2)N(C[C@@H]2CC[C@H]21)C[C@@]1(CCCc2cc(Cl)ccc21)CO3 [Example 28] | 0.2 nM | 8410 nM | 
4 | COc1nn(C)cc1C(=O)N[S@@]1(=O)=NC(=O)c2ccc3c(c2)N(C[C@@H]2CC[C@H]2[C@@H](OC(=O)CC(C)C)/C=C/C[C@H](C)C1)C[C@@]1(CCCc2cc(Cl)ccc21)CO3 [Example 381] | 0.769 nM | 534 nM | 
5 | CO[C@H]1/C=C/CCC[S@@](=O)(NC(=O)CCc2ccccn2)=NC(=O)c2ccc3c(c2)N(C[C@@H]2CC[C@H]21)C[C@@]1(CCCc2cc(Cl)ccc21)CO3 [Example 47] | 0.1 nM | 758 nM | 
6 | CO[C@H]1/C=C/CCC[S@@](=O)(NC(=O)CCc2ccccc2)=NC(=O)c2ccc3c(c2)N(C[C@@H]2CC[C@H]21)C[C@@]1(CCCc2cc(Cl)ccc21)CO3 [Example 97] | 0.6 nM | 788 nM | 
7 | CO[C@H]1/C=C/C[C@H](C)C[S@@](=O)(NC(=O)NC2CC2CC(F)F)=NC(=O)c2ccc3c(c2)N(C[C@@H]2CC[C@H]21)C[C@@]1(CCCc2cc(Cl)ccc21)CO3 (single isomer, unassigned) [Example 282] | 0.086 nM |  | 28.7 nM
8 | CO[C@H]1/C=C/C[C@H](C)C[S@@](=O)(NC(=O)N2CC(F)(F)C2)=NC(=O)c2ccc3c(c2)N(C[C@@H]2CC[C@H]21)C[C@@]1(CCCc2cc(Cl)ccc21)CO3 [Example 323] | 0.158 nM | 170 nM | 
9 | CO[C@H]1/C=C/C[C@H](C)C[S@@](=O)(NC(=O)c2cc3ccncn3c2)=NC(=O)c2ccc3c(c2)N(C[C@@H]2CC[C@H]21)C[C@@]1(CCCc2cc(Cl)ccc21)CO3 [Example 163] | 0.263 nM | 98.7 nM | 
10 | CO[C@H]1/C=C/C[C@H](C)C[S@@](=O)(NC(=O)N2CC3(C2)CC3(F)F)=NC(=O)c2ccc3c(c2)N(C[C@@H]2CC[C@H]21)C[C@@]1(CCCc2cc(Cl)ccc21)CO3 [Example 324] | 0.058 nM | 37.9 nM | 
11 | COC[C@@H]1C[C@@H]1NC(=O)N[S@@]1(=O)=NC(=O)c2ccc3c(c2)N(C[C@@H]2CC[C@H]2[C@@H](OC)/C=C/C[C@H](C)C1)C[C@@]1(CCCc2cc(Cl)ccc21)CO3 [Example 315] | 0.127 nM | 164 nM | 
12 | CO[C@H]1/C=C/C[C@H](C)C[S@@](=O)(NC(=O)c2cnsc2)=NC(=O)c2ccc3c(c2)N(C[C@@H]2CC[C@H]21)C[C@@]1(CCCc2cc(Cl)ccc21)CO3 [Example 411] | 0.178 nM | 175 nM | 
13 | COC(=O)c1cc(C(=O)N[S@@]2(=O)=NC(=O)c3ccc4c(c3)N(C[C@@H]3CC[C@H]3[C@@H](OC)/C=C/C[C@H](C)C2)C[C@@]2(CCCc3cc(Cl)ccc32)CO4)cn1C [Example 358] | 0.114 nM | 95.1 nM | 
14 | CO[C@H]1/C=C/C[C@H](C)C[S@@](=O)(NC(=O)N2CC(CC(F)F)C2)=NC(=O)c2ccc3c(c2)N(C[C@@H]2CC[C@H]21)C[C@@]1(CCCc2cc(Cl)ccc21)CO3 [Example 355] | 0.062 nM | 67.4 nM | 
15 | COc1c(C(=O)N[S@@]2(=O)=NC(=O)c3ccc4c(c3)N(C[C@@H]3CC[C@H]3[C@@H](OC)/C=C/C[C@H](C)C2)C[C@@]2(CCCc3cc(Cl)ccc32)CO4)cn2c1COCC2 [Example 191] | 0.103 nM | 123 nM | 
16 | CO[C@H]1/C=C/CCC[S@@](=O)(NC(=O)CCc2cncnc2)=NC(=O)c2ccc3c(c2)N(C[C@@H]2CC[C@H]21)C[C@@]1(CCCc2cc(Cl)ccc21)CO3 [Example 53] | 0.2 nM | 388 nM | 
17 | CO[C@H]1/C=C/CCC[S@@](=O)(NC(=O)Cc2ncccn2)=NC(=O)c2ccc3c(c2)N(C[C@@H]2CC[C@H]21)C[C@@]1(CCCc2cc(Cl)ccc21)CO3 [Example 30] | 0.6 nM | 1840 nM | 
18 | CO[C@H]1/C=C/C[C@H](C)C[S@@](=O)(NC(=O)N[C@@H]2C[C@H]2C2CCOCC2)=NC(=O)c2ccc3c(c2)N(C[C@@H]2CC[C@H]21)C[C@@]1(CCCc2cc(Cl)ccc21)CO3 [Example 181] | 0.146 nM | 37.9 nM | 
19 | CO[C@H]1/C=C/C[C@H](C)C[S@@](=O)(NC(=O)c2ccc3c(c2)COCC3)=NC(=O)c2ccc3c(c2)N(C[C@@H]2CC[C@H]21)C[C@@]1(CCCc2cc(Cl)ccc21)CC3 [Example 157] | 0.234 nM | 64.8 nM | 
20 | COc1nn(C)cc1C(=O)N[S@@]1(=O)=NC(=O)c2ccc3c(c2)N(C[C@@H]2CC[C@H]2[C@@H](OC)/C=C/[C@@H](OC)CC1)C[C@@]1(CCCc2cc(Cl)ccc21)CO3 [Example 394] | 1.72 nM | 4750 nM | 
21 | CO[C@H]1/C=C/C[C@H](C)C[S@@](=O)(NC(=O)[C@H]2CCc3cnn(C)c3C2)=NC(=O)c2ccc3c(c2)N(C[C@@H]2CC[C@H]21)C[C@@]1(CCCc2cc(Cl)ccc21)CO3 (single isomer, unassigned) [Example 141] | 0.086 nM | 65.3 nM | 
22 | CO[C@H]1/C=C/C[C@H](C)C[S@@](=O)(NC(=O)c2ccc3c(c2)CCOC3)=NC(=O)c2ccc3c(c2)N(C[C@@H]2CC[C@H]21)C[C@@]1(CCCc2cc(Cl)ccc21)CO3 [Example 430] | 0.17 nM | 139 nM | 
23 | CO[C@H]1/C=C/CCC[S@@](=O)(NC(=O)OCc2ccnn2C)=NC(=O)c2ccc3c(c2)N(C[C@@H]2CC[C@H]21)C[C@@]1(CCCc2cc(Cl)ccc21)CO3 [Example 78] | 0.8 nM | 4070 nM | 
24 | COc1nnccc1C(=O)N[S@@]1(=O)=NC(=O)c2ccc3c(c2)N(C[C@@H]2CC[C@H]2[C@@H](OC)/C=C/C[C@H](C)C1)C[C@@]1(CCCc2cc(Cl)ccc21)CO3 [Example 458] | 0.079 nM | 376 nM | 

Stronger by IC50 [1], values ahead:

Row | IC50 [1] | EC50 (SKBR3 cells; Homo sapiens, SK-BR-3, 72 h) | EC50 (SKBR3 cells; 72 hours) | SMILES
25 | 0.056 nM | 169 nM |  | CO[C@H]1/C=C/C[C@H](C)C[S@@](=O)(NC(=O)NC2CCC2)=NC(=O)c2ccc3c(c2)N(C[C@@H]2CC[C@H]21)C[C@@]1(CCCc2cc(Cl)ccc21)CO3 [Example 423]
26 | 0.025 nM | 168 nM |  | CO[C@H]1/C=C/C[C@H](C)C[S@@](=O)(NC(=O)N[C@H]2CC2(F)F)=NC(=O)c2ccc3c(c2)N(C[C@@H]2CC[C@H]21)C[C@@]1(CCCc2cc(Cl)ccc21)CO3 [Example 161]
27 | 0.029 nM | 44.4 nM |  | CO[C@H]1/C=C/C[C@H](C)C[S@@](=O)(NC(=O)N2C[C@H](OC)[C@H]2C)=NC(=O)c2ccc3c(c2)N(C[C@@H]2CC[C@H]21)C[C@@]1(CCCc2cc(Cl)ccc21)CO3 [Example 250]
28 | 0.044 nM | 121 nM |  | CO[C@H]1/C=C/C[C@H](C)C[S@@](=O)(NC(=O)N2CC(C(C)(C)O)C2)=NC(=O)c2ccc3c(c2)N(C[C@@H]2CC[C@H]21)C[C@@]1(CCCc2cc(Cl)ccc21)CO3 [Example 237]
29 | 0.04 nM | 22 nM |  | COc1nn(C)cc1C(=O)N[S@@]1(=O)=NC(=O)c2ccc3c(c2)N(C[C@@H]2CC[C@H]2[C@@H](OC)/C=C/[C@H](OCCN2CCOCC2)[C@H](C)C1)C[C@@]1(CCCc2cc(Cl)ccc21)CO3 [Example 295]
30 | 0.038 nM |  | 19 nM | COc1cn(C)cc1C(=O)N[S@@]1(=O)=NC(=O)c2ccc3c(c2)N(C[C@@H]2CC[C@H]2[C@@H](O)/C=C/C[C@H](C)[C@H]1C)C[C@@]1(CCCc2cc(Cl)ccc21)CO3 [Example 359]
31 | 0.055 nM | 75.6 nM |  | CO[C@@H]1CCN(C(=O)N[S@@]2(=O)=NC(=O)c3ccc4c(c3)N(C[C@@H]3CC[C@H]3[C@@H](OC)/C=C/C[C@H](C)C2)C[C@@]2(CCCc3cc(Cl)ccc32)CO4)C1 [Example 350]
32 | 0.035 nM | 39.8 nM |  | CCOC1CN(C(=O)N[S@@]2(=O)=NC(=O)c3ccc4c(c3)N(C[C@@H]3CC[C@H]3[C@@H](OC)/C=C/C[C@H](C)C2)C[C@@]2(CCCc3cc(Cl)ccc32)CO4)C1 [Example 235]
33 | 0.043 nM | 51.3 nM |  | CCO[C@]1(C)C[C@H](NC(=O)N[S@@]2(=O)=NC(=O)c3ccc4c(c3)N(C[C@@H]3CC[C@H]3[C@@H](OC)/C=C/C[C@H](C)C2)C[C@@]2(CCCc3cc(Cl)ccc32)CO4)C1 [Example 225]
34 | 0.053 nM | 64.1 nM |  | CCO[C@H]1/C=C/[C@H](OC)[C@@H]2CC[C@H]2CN2C[C@@]3(CCCc4cc(Cl)ccc43)COc3ccc(cc32)C(=O)N=[S@](=O)(NC(=O)c2cn(C)nc2OC)C[C@H]1C [Example 296]
35 | 0.04 nM |  | 99.2 nM | CO[C@H]1/C=C/C[C@H](C)C[S@@](=O)(NC(=O)N[C@@H]2C[C@H]2OC)=NC(=O)c2ccc3c(c2)N(C[C@@H]2CC[C@H]21)C[C@@]1(CCCc2cc(Cl)ccc21)CO3 (single isomer, unassigned) [Example 196]
36 | 0.043 nM | 154 nM |  | COC(=O)N1CC(NC(=O)N[S@@]2(=O)=NC(=O)c3ccc4c(c3)N(C[C@@H]3CC[C@H]3[C@@H](OC)/C=C/C[C@H](C)C2)C[C@@]2(CCCc3cc(Cl)ccc32)CO4)C1 [Example 114]
37 | 0.029 nM | 84.8 nM |  | COc1nn(C)cc1C(=O)N[S@@]1(=O)=NC(=O)c2ccc3c(c2)N(C[C@@H]2CC[C@H]2[C@@H](OC)/C=C/[C@H](OC)[C@H](C)C1)C[C@@]1(CCCc2cc(Cl)ccc21)CO3 [Example 283]
